Data taken from PMC6965684, “Characterization of binding, functional activity, and contractile responses of the selective 5‐HT1F receptor agonist lasmiditan” (British Journal of Pharmacology, 2019).
Structures can show the parent of a compound that is named as a salt. Where two headings read alike, the source gives them in different places.

Experiments:
5-HT1A receptor [1] = biological target: T1, 5-HT1A receptor (Homo sapiens, UniProt P08908); assay: biochemical; type: CHO-K1 membranes; parameters: radioligand competition binding on cell membranes, filtration and TopCount scintillation counting; settings: radioligand displacement; read-out: 5‐HT1A / pIC50 (converted)
T1 construct: gene HTR1A; full-length human recombinant receptor in CHO-K1 cells (Ogeda); crude membranes
T1 sequence (P08908 1-422): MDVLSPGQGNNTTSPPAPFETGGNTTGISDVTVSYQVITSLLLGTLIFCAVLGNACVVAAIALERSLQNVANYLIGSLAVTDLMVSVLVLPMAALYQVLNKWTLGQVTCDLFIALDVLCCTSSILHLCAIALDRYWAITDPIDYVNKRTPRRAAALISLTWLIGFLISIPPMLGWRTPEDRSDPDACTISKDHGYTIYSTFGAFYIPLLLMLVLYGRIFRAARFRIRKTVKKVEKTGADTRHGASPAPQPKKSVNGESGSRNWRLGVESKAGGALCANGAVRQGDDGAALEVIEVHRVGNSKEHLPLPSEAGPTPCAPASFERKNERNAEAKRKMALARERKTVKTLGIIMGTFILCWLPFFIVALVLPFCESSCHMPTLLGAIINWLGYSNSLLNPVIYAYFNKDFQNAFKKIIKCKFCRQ
Experimental: (§1) Competition binding was performed in duplicate in the wells of a 96‐well plate containing binding buffer (optimized for each receptor), cell membrane extracts (approximately 20,000 cells distributed in the 96‐well plate), radiotracer, and test agonist. Non‐specific binding was determined by co‐incubation with 200‐fold excess of competitor. Cells were incubated and exposed to varying concentrations (1 pM to 10 μM) of a range of displacer agonists (see below). The samples were incubated in a final volume of 0.1 ml and then filtered over Unifilter plates (Perkin Elmer, Massachusetts, USA) pretreated for 2 hr to limit tracer non‐specific binding. Filters were washed five times with 0.5 ml of ice‐cold washing buffer (tris 50 mM pH 7.4) and 50 μl of Microscint 20 (Perkin Elmer) were added to each filter. The plates were incubated 15 min at room temperature on an orbital shaker and then counted with a TopCount™ (Perkin Elmer) for 1 min per well. […] Additionally, the reference values obtained were compared to historical values obtained from the same receptor and used to validate the experimental session. […] For the new assays developed in this study (i.e., 5‐ht1E receptor), the two independent pIC50 determined must be concordant with a 1 log unit interval for the assays to be validated.

5-HT1A receptor [2] = biological target: T1, 5-HT1A receptor; assay: cell-based; parameters: species or system CHO-K1; cAMP HTRF agonist assay, Gi coupled receptors, inhibition of stimulated cAMP; settings: cAMP
Experimental: Concentration–response curves were performed in parallel with the agonists. […] After addition of the lysis buffer and 1‐hr incubation, cAMP concentrations were estimated according to the manufacturer specification with the HTRF kit (Cisbio International, Codelet, France). In brief, increasing concentrations of agonists were added to stably transfected cells in buffer in an Optiplate (PerkinElmer Life Sciences, Massachusetts, USA). The plates were incubated, and cells were then lysed by the addition of HTRF reagents (cAMP‐Cryptate and anti‐cAMP‐d2 reagents) and diluted in lysis buffer, followed by incubation at room temperature. […] Additionally, the reference values obtained were compared to historical values obtained from the same receptor and used to validate the experimental session. […] For the new assays developed in this study (i.e., 5‐ht1E receptor), the two independent pIC50 determined must be concordant with a 1 log unit interval for the assays to be validated.

5-HT1A receptor [3] = biological target: T1, 5-HT1A receptor; assay: biochemical; type: CHO-K1 membranes; parameters: GTPγS agonist functional assay; settings: GTPγS
Excerpt: Additionally, the reference values obtained were compared to historical values obtained from the same receptor and used to validate the experimental session. […] For the new assays developed in this study (i.e., 5‐ht1E receptor), the two independent pIC50 determined must be concordant with a 1 log unit interval for the assays to be validated.

5-HT2A receptor [4] = biological target: T2, 5-HT2A receptor (Homo sapiens, UniProt P28223); assay: biochemical; type: CHO-K1 membranes; parameters: radioligand competition binding on cell membranes, filtration and TopCount scintillation counting; settings: for Ki: read-out: 5‐HT2A / pKi (converted)
T2 construct: gene HTR2A; full-length human recombinant receptor in CHO-K1 cells (Ogeda); crude membranes
T2 sequence (P28223 whole entry): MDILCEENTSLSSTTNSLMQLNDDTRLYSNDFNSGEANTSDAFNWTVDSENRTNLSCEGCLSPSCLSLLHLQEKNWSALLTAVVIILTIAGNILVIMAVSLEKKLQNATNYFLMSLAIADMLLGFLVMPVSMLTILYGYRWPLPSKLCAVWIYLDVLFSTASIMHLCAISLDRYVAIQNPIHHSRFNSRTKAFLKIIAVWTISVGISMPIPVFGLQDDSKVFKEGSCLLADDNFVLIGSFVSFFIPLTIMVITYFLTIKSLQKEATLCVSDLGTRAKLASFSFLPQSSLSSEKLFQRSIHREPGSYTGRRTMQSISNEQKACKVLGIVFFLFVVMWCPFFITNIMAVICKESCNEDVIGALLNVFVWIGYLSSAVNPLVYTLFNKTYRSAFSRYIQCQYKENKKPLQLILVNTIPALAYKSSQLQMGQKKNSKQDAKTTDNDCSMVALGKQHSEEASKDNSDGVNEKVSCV
Experimental: as §1, with “validated. […]” for “validated.”

5-HT2A receptor [5] = biological target: T2, 5-HT2A receptor; assay: cell-based; parameters: species or system CHO-K1; IPOne HTRF agonist assay, IP1 accumulation in adherent transfected cells
Experimental: The assay was performed on adherent cells. For agonist testing, the medium was removed and 20 μl of assay buffer plus 20 μl of the studied agonist or the reference agonist were added in each well. The plate was incubated for 60 min at 37°C with 5% CO2. IP1‐D2 reagent and anti‐IP1 cryptate reagents were dispensed in the wells, and IP1 concentrations were then measured following the manufacturer instructions (IPOne HTRF assay kit; Cisbio International, Codolet, France). In brief, increasing concentrations of agonists were added to stably transfected cells in buffer in an Optiplate (PerkinElmer Life Sciences). The plates were incubated, and cells were then lysed by the addition of HTRF reagents (IP1‐D2 reagent and anti‐IP1 cryptate reagents) and diluted in lysis buffer, followed by incubation at room temperature. […] Additionally, the reference values obtained were compared to historical values obtained from the same receptor and used to validate the experimental session. […] For the new assays developed in this study (i.e., 5‐ht1E receptor), the two independent pIC50 determined must be concordant with a 1 log unit interval for the assays to be validated. […]

[6] = radioligand displacement, read-out: 5‐HT2A / pIC50 (converted)
[7] = IP, read-out: 5‐HT2A / IP (converted)

Row | Structure (SMILES) | IC50 (5-HT1A receptor [1]) [nM] | EC50 (5-HT1A receptor [2]) [nM] | EC50 (5-HT1A receptor [3]) [nM] | IC50 (5-HT2A receptor [4]; [6]) [nM] | Ki (5-HT2A receptor [4]; radioligand displacement) [nM] | EC50 (5-HT2A receptor [5]; [7]) [nM] | IC50 (5-HT2A receptor [4]) [nM] | EC50 (5-HT2A receptor [5]) [nM]
1 | CNC1CCc2[nH]c3ccc(C(N)=O)cc3c2C1 (racemic) [Frovatriptan racemate] | 148 | > 10000 | 759 | > 10000 | > 10000 | > 10000 |  | 
2 | CNS(=O)(=O)CCc1ccc2[nH]cc(C3CCN(C)CC3)c2c1 [Naratriptan hydrochloride] | 49 | > 10000 | 302 | > 10000 | > 10000 | > 10000 |  | 
3 | CN1CCC[C@@H]1Cc1c[nH]c2ccc(CCS(=O)(=O)c3ccccc3)cc12 [Eletriptan hydrobromide] | 6.31 | 1820 | 417 | 3800 |  | 851 |  | 
4 | CNS(=O)(=O)Cc1ccc2[nH]cc(CCCN3CCN(c4ncncc4OC)CC3)c2c1 [Avitriptan fumarate] | 63.1 | > 10000 | 646 | 7760 |  | 123 |  | 
5 | N#Cc1ccc(N2CCN(C(=O)COc3ccc4[nH]cc(CCN)c4c3)CC2)cc1 [Donitriptan hydrochloride] | 38 | 1150 | 182 | 1480 |  | 7.94 |  | 
6 | CN(C)[C@@H]1CCc2[nH]c3ccc(NC(=O)c4ccc(F)cc4)cc3c2C1 [LY344864 hydrochloride] | 759 | > 10000 | > 10000 |  |  |  | 7760 | > 10000
